The source of these data is patent US20250255841A1, “METHODS FOR TREATING CYTOKINE STORM ASSOCIATED WITH ACINETOBACTER BAUMANNII INFECTIONS” (City University of Hong Kong, priority 2024, published 2025).

For one test, the system named is ATCC17978-infected mice. Nature of the test: Mouse sepsis infection model with immunosuppressive drug treatment (survival, body weight, spleen weight). In kind it is in vivo, C57BL/6 mice. The conditions noted are these: for survival rate of ATCC17978-infected mice: intraperitoneal drug. Here is the method: (§1) The mouse infection model was employed to detect the immune response induced by Ab in vivo. Mice of the same sex were randomly divided into several groups (5 animals per group) and then infected by 7.5×10^7 CFU of Ab test strain by intraperitoneal administration. The body weight of all mice was recorded before infection and at 12 hours post-infection. Survival of the test animals was determined by recording the mortality rate during the 120-hour experiment. At 12 hpi, the mice were sacrificed, and the organs were collected and homogenized for bacterial load measurement and analysis by flow cytometry, RNAseq, scRNAseq and qRT-PCR assay. The serum of the mice was collected for ELISA detection. Animal experiments were conducted at least twice to assess the consistency of the data.
To test the effect of NSAIDs treatment, the mice were administered intraperitoneal injections of 50 mg/kg NPXS and 100 mg/kg ASA 1 h before ATCC 17978 infection; a group of mice that served as control received equivalent volumes of PBS. The survival rate, health status, and weight of the test animals were recorded during the next 120 hours.

For a further test, the system named is RAW264.7 cells. Nature of the test: Inhibitor treatment in RAW264.7 infected with ATCC 17978, flow cytometry of CD86/CD206. The class given is cell-based, mouse. The settings on record: RAW264.7 pretreated 1 h, Ab MOI=5 for 6 h; compared to cells not treated with the inhibitors. Here is the method: RAW264.7 cells were pre-treated for 1 h with the culture medium, C29 (100 μM)^22, TJ-M2010-5 (20 μM)^23 and JSH-23 (30 μM)^24 (MCE, NJ, USA) respectively, and then stimulated with Ab (MOI=5) for 6 h in the presence of the culture medium, C29, TJ-M2010-5 or JSH-23. Cell supernatants were collected for subsequent cytokine measurement. RAW264.7 cells were incubated with fluorescently labeled antibodies against mouse F4/80, CD206, and CD86 for flow cytometric analysis, following washes three times with PBS and resuspension in PBS containing 2.5% FBS.
In general terms: In flow cytometry, cells or beads pass a laser one at a time.

In test [1] the test system is CD11b+F4/80+ macrophages in the lungs of Ab-infected mice. Here is the method:
as §1

For test [2], the system named is serum cytokine production (TNF-α, IL-6 and IL-1b). The settings on record: Ab-infected mice, ELISA. Here is the method: as §1
Blood was collected from the test mice by orbital bleeding and clotted at RT for 1 h. Blood was subsequently subjected to centrifugation at 10,000 g for 25 min at 4° C. Serum was divided into tubes and stored immediately at −80° C. until cytokine analysis.
The enzyme-linked immunosorbent assay (ELISA) was used to perform cytokine analysis in mouse serum and cell supernatants. Mouse serum was extracted as described above. Pre-treated macrophage cell supernatants were harvested and centrifuged to remove impurities. The levels of IL1β, IL6, and TNF-α were measured by using the IL-1 beta, IL-6 and TNF alpha Mouse Uncoated ELISA Kit (Thermo Fisher Scientific) according to the manufacturer's protocols, respectively.

Test [3] has as its system pro-inflammatory, COX and TLR2/Myd88/NF-κB signaling pathway-related genes. On the procedure:
as §1
Total RNA was extracted from the homogenized lung samples or RAW264.7 cells (ATCC, CA, USA) upon Ab infection, utilizing the TRIzol™ method (Thermo Fisher Scientific, MA, USA). Turbo DNA-free™ Kit (Invitrogen, CA, USA) was employed for removal of DNA contaminants. 1 μg purified mRNA was reverse transcribed into cDNA using SuperScript™ III First-Strand Synthesis SuperMix Kit (Invitrogen), with a 1:10 dilution for subsequent qRT-PCR analysis. The qRT-PCR was then performed on an ABI QuantStudio 7 Flex Real-Time PCR System (Applied Biosystems, CA, USA) by the PowerUP SYBR Green master mix (Applied Biosystems). The target gene transcription levels were quantified by the comparative Ct method and normalized to the expression level of glyceraldehyde-3-phosphate dehydrogenase (GADPH).
Total RNA extracted from lung samples was sequenced by Novogene Technology (Hong Kong SAR, China). Bioanalyzer 2100 system was used to measure RNA integrity (Agilent Technologies, CA, USA); the NEBNextUltra RNA Library Prep Kit (NEB, CA, USA) was employed to construct the cDNA libraries for Illumina sequencing. The index-coded samples clustering was carried out on a cBot Cluster Generation System by the TruSeq PE Cluster Kit v3-cBot-HS (Illumia, CA, Illumia). The libraries were sequenced on the Illumina Novaseq platform with paired-end 150 bp reads. HISAT2 was used for sequencing reads alignment. Fragments per gene were counted based on exon regions with FeatureCounts v.1.6.243. Differential mRNA level analysis was carried on by the DESeq2 R package. Unigenes with P.adjust<0.05 and |Log2Fold Change|>1 could be described as differentially expressed genes. Gene Enrichment Analysis was conducted for gene ontology enrichment analysis.

Setting [4] is: RNA-seq, ATCC 17978-infected mice after NPXS treatment, stated as suppressed.

For the molecule `CC(=O)Oc1ccccc1C(=O)O` [ASA, acetylsalicylic acid], in the test with ATCC17978-infected mice (at 24 h), the “survival rate of ATCC17978-infected mice” value is listed as 60%. For the same molecule, the “anti-inflammatory potency recorded during Ab infection” value in the test with ATCC17978-infected mice (comparison with naproxen) is “inferior to that of naproxen”.
Turning to `Cn1cnc([N+](=O)[O-])c1Sc1ncnc2nc[nH]c12` [AzA, azathioprine], in the test with ATCC17978-infected mice (at 36 h), the “survival rate of ATCC17978-infected mice” value amounted to 40%.
Regarding `C[C@@H]1C[C@H]2[C@@H]3CCC4=CC(=O)C=C[C@]4(C)[C@@]3(F)[C@@H](O)C[C@]2(C)[C@@]1(O)C(=O)CO` [DXMS, dexamethasone], the “survival rate of ATCC17978-infected mice” value in the test with ATCC17978-infected mice (at 48 h) came to 40%.
For the molecule `Cc1ccc(NCCCc2ccccc2)c(N)c1` [JSH-23], in the test with RAW264.7 cells, the “CD86 MFI levels” value was “decrease” and the “CD206 MFI levels” value is “no difference”.
Consider `COc1ccc2cc([C@H](C)C(=O)O)ccc2c1` [NPXS, (+)-(S)-2-(6-methoxynaphthalen-2-yl) propanoic acid], for which, in test [1] (F4/80+ macrophages in the lungs of Ab-infected mice), the “CD86 MFI levels (M1 polarization)” value is on record as “effectively attenuated”. The “infiltration of CD11b+F4/80+ macrophages” value in test [1] (lungs of Ab-infected mice) was “did not result in decrease”. Further, in test [2], the “reduction of serum IL-1b production” value is “more than 50 fold”, the “reduction of serum IL-6 production” value is “more than 50 fold” and the “reduction of serum TNF-α production” value is listed as “more than 50 fold”. For the same molecule, the “relative expression of TLR2/Myd88/NF-κB signaling pathway-related genes” value in test [3] (ATCC 17978-infected mice after NPXS treatment) is given as “further reduction”. In addition, in test [3] (Ab-infected mice, lungs), the “transcript levels of most pro-inflammatory genes” value is listed as “significantly lower”. In addition, in test [3] (setting [4]), the “expression of COX1 gene, Log2FC” value is recorded as 0.4194 and the “expression of COX2 gene, Log2FC” value is given as 0.2429. In addition, the “extent of body weight loss” value in the test on ATCC17978-infected mice (12 hpi, on average, infected untreated 6.7%) came to 3.6%. Besides, the “splenomegaly (percentage of spleen weight)” value with ATCC17978-infected mice (on average, infected untreated 0.48%) worked out at 0.38%. In addition, in the test with ATCC17978-infected mice (within 120 h, 50 mg/kg i.p. 1 h before infection), the “infected mice protected from death” value is 100%.
Take `O=C(CCN1CCN(Cc2ccccc2)CC1)Nc1nc(-c2ccccc2)cs1` [TJ-M2010-5]: in the test on RAW264.7 cells, the “CD86 MFI levels” value was “decrease” and the “CD206 MFI levels” value is on record as “no difference”.
